Strand notation (5' to 3'): a small letter for the sugar, then the base; units joined by * are phosphorothioate-linked, units joined directly phosphodiester-linked; [ ] holds rarer units or linkages, { } end groups; capitals alone tell only the bases. [ms] = mesyl phosphoramidate linkage; e = 2'-O-(2-methoxyethyl) (MOE); k = constrained ethyl (cEt); [5mC] = 5-methylcytosine; d = 2'-deoxy (DNA)
Key:
human APOE RNA [1] = experiment: Dose-dependent reduction of human APOE RNA in HepG2 cells, electroporation, 20,000 cells per well, average of GAPDH- and PPIA-normalized results (Example 4, Table 12); type: cell-based; details: HepG2, 20,000 cells per well; for IC50: approximately 24 hours
Experimental: HepG2 cells plated at a density of 20,000 cells per well were treated by electroporation with various concentrations of modified oligonucleotide as specified in the tables below. […] APOE RNA levels were measured using the human primer probe set RTS3073 (described herein above). APOE RNA levels were normalized to human GAPDH, and human PPIA. Human GAPDH was amplified using human primer probe set RTS104 (described herein above). Human PPIA was amplified using human primer probe set mk_cycloA_2nd (described herein above) The average of the GAPDH-normalized results and the PPIA-normalized results are presented in the table below as percent APOE RNA, relative to the amount of APOE RNA in untreated control cells (% UTC). The half maximal inhibitory concentration (IC50) of each modified oligonucleotide was calculated in GraphPad Prism 10 (GraphPad Software, San Diego, CA) and is also presented in the table below.

human APOE RNA [2] = experiment: Dose-dependent inhibition of human APOE RNA in differentiated SH-SY5Y cells, free uptake, 5 days (Example 5); type: cell-based
Experimental: Modified oligonucleotides selected from the examples above were tested at various doses in differentiated SH-SY5Y cells. The modified oligonucleotides were tested in a series of experiments that had the same culture conditions.
Differentiated SH-SY5Y cells plated at a density of 10,000 cells per well were treated by free uptake with various concentrations of modified oligonucleotide as specified in the tables below. […] APOE RNA levels were measured using the human primer probe set RTS3073 (described herein above). APOE RNA levels were normalized to human PPIA. Human PPIA was amplified using human primer probe set mk_cycloA_2nd (described herein above). Results are presented as percent APOE RNA, relative to the amount of APOE RNA in untreated control cells (% UTC). The half maximal inhibitory concentration (IC50) of each modified oligonucleotide was calculated in GraphPad Prism 10 (GraphPad Software, San Diego, CA) and is also presented in the tables below.

human APOE RNA [3] = experiment: Activity in APOE C57BL/6NTac-Apoeem7250 knock-in mice, single ICV bolus, 4 weeks (Example 10); type: in vivo; details: single ICV bolus 300 μg, 4 weeks post treatment, normalized to mouse Ppia
Procedure, shortened: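 Human APOE RNA, quantified by real-time RT-PCR with RTS3073 and normalized to mouse Ppia, was read in cortical brain and spinal cord 4 weeks post dosing. Dosing was a single ICV bolus of 300 μg per knock-in mouse; values are % of PBS-treated animals.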

human APOE RNA [4] = experiment: Activity in APOE C57BL/6NTac-Apoeem7250 knock-in mice, single ICV bolus, 8 weeks (Example 11); type: in vivo; details: for APOE RNA (% control) Cortex / APOE RNA (% control) Spinal Cord: single ICV bolus 300 μg, 8 weeks post treatment, normalized to mouse Ppia; for reduction of human APOE RNA in the cortex: APOE knock-in mouse model, 8 weeks post administration, assay of Example 11
Procedure, shortened: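 Cortical and spinal cord human APOE RNA quantified by RT-qPCR 8 weeks after a single 300 μg ICV dose in knock-in mice, Ppia-normalized. Values are percent of levels in PBS-treated animals.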

Substance	APOE RNA (% UTC) (human APOE RNA [1]; 5 nM)	APOE RNA (% UTC) (human APOE RNA [1]; 13 nM)	APOE RNA (% UTC) (human APOE RNA [1]; 33 nM)	APOE RNA (% UTC) (human APOE RNA [1]; 82 nM)	APOE RNA (% UTC) (human APOE RNA [1]; 205 nM)	APOE RNA (% UTC) (human APOE RNA [1]; 512 nM)	APOE RNA (% UTC) (human APOE RNA [1]; 1,280 nM)	APOE RNA (% UTC) (human APOE RNA [1]; 3,200 nM)	APOE RNA (% UTC) (human APOE RNA [1]; 8,000 nM)	APOE RNA (% UTC) (human APOE RNA [1]; 20,000 nM)	IC50 (human APOE RNA [1])	APOE RNA (% UTC) (human APOE RNA [2]; 5 nM, 5 days (Table 14))	APOE RNA (% UTC) (human APOE RNA [2]; 13 nM, 5 days (Table 14))	APOE RNA (% UTC) (human APOE RNA [2]; 33 nM, 5 days (Table 14))	APOE RNA (% UTC) (human APOE RNA [2]; 82 nM, 5 days (Table 14))	APOE RNA (% UTC) (human APOE RNA [2]; 205 nM, 5 days (Table 14))	APOE RNA (% UTC) (human APOE RNA [2]; 512 nM, 5 days (Table 14))	APOE RNA (% UTC) (human APOE RNA [2]; 1,280 nM, 5 days (Table 14))	APOE RNA (% control) Cortex (human APOE RNA [4])	APOE RNA (% control) Spinal Cord (human APOE RNA [4])	also measured
1778128: modified oligonucleotide complementary to human APOE RNA (eA*e[5mC]eTeTkGkG*dT*dG[ms]dA[ms]dA*dT*d[5mC]*dT*dT*dT*dA[ms]kTeT*eA*eA; antisense) [compound 1778128]	96 % UTC	95 % UTC	83 % UTC	67 % UTC	60 % UTC	37 % UTC	24 % UTC	25 % UTC	22 % UTC	14 % UTC	350 nM	91 % UTC	51 % UTC	99 % UTC	63 % UTC	74 % UTC	32 % UTC	30 % UTC	27 % control	25 % control	APOE RNA (% UTC) (human APOE RNA [2]; 3,200 nM, 5 days (Table 14)): 40 % UTC; APOE RNA (% UTC) (human APOE RNA [2]; 8,000 nM, 5 days (Table 14)): 33 % UTC; APOE RNA (% UTC) (human APOE RNA [2]; 20,000 nM, 5 days (Table 14)): 23 % UTC; IC50 (human APOE RNA [2]; 5 days (Table 14)): 530 nM; APOE RNA (% control) Cortex (human APOE RNA [3]): 31 % control; APOE RNA (% control) Spinal Cord (human APOE RNA [3]): 40 % control
Aks^mCeoTeoTesGesGksTdsGdzAdzAdzTds^mCdsTdsTdsTdsAdzTksTksAesAe (kA*e[5mC]eTeT*eG*kG*dT*dG[ms]dA[ms]dA[ms]dT*d[5mC]*dT*dT*dT*dA[ms]kT*kT*eA*eA) [Compound No. 1809635]	–	–	–	–	–	–	–	–	–	–	–	–	–	–	–	–	–	–	26 % control	15 % control	APOE RNA (% UTC) (human APOE RNA [2]; 5 nM, 5 days (Table 13)): 67 % UTC; APOE RNA (% UTC) (human APOE RNA [2]; 13 nM, 5 days (Table 13)): 62 % UTC; APOE RNA (% UTC) (human APOE RNA [2]; 33 nM, 5 days (Table 13)): 52 % UTC; APOE RNA (% UTC) (human APOE RNA [2]; 82 nM, 5 days (Table 13)): 43 % UTC; APOE RNA (% UTC) (human APOE RNA [2]; 205 nM, 5 days (Table 13)): 33 % UTC; APOE RNA (% UTC) (human APOE RNA [2]; 512 nM, 5 days (Table 13)): 27 % UTC; APOE RNA (% UTC) (human APOE RNA [2]; 1,280 nM, 5 days (Table 13)): 40 % UTC; APOE RNA (% UTC) (human APOE RNA [2]; 3,200 nM, 5 days (Table 13)): 28 % UTC; APOE RNA (% UTC) (human APOE RNA [2]; 8,000 nM, 5 days (Table 13)): 20 % UTC; APOE RNA (% UTC) (human APOE RNA [2]; 20,000 nM, 5 days (Table 13)): 20 % UTC; IC50 (human APOE RNA [2]; 5 days (Table 13)): 50 nM; reduction of human APOE RNA in the cortex (human APOE RNA [4]): 74%
1785599: modified oligonucleotide complementary to human APOE RNA (k[5mC]*kT*kT*dG[ms]dG[ms]dT[ms]dG[ms]dA[ms]dA[ms]dT[ms]d[5mC]*dT*dT*dT*dA*dT*kT*kA*dA[ms]kA; antisense) [compound 1785599]	100 % UTC	106 % UTC	93 % UTC	81 % UTC	71 % UTC	43 % UTC	32 % UTC	18 % UTC	10 % UTC	15 % UTC	510 nM	77 % UTC	61 % UTC	72 % UTC	60 % UTC	46 % UTC	20 % UTC	21 % UTC	26 % control	34 % control	APOE RNA (% UTC) (human APOE RNA [2]; 3,200 nM, 5 days (Table 14)): 17 % UTC; APOE RNA (% UTC) (human APOE RNA [2]; 8,000 nM, 5 days (Table 14)): 12 % UTC; APOE RNA (% UTC) (human APOE RNA [2]; 20,000 nM, 5 days (Table 14)): 6 % UTC; IC50 (human APOE RNA [2]; 5 days (Table 14)): 100 nM; APOE RNA (% control) Cortex (human APOE RNA [3]): 32 % control; APOE RNA (% control) Spinal Cord (human APOE RNA [3]): 38 % control
1785617: modified oligonucleotide complementary to human APOE RNA (k[5mC]*dT[ms]dT[ms]kG*dG[ms]kT*dG[ms]dA[ms]dA[ms]dT[ms]d[5mC]*dT*dT*dT*dA*dT*kT*kA*dA[ms]kA; antisense) [compound 1785617]	95 % UTC	93 % UTC	82 % UTC	68 % UTC	55 % UTC	32 % UTC	23 % UTC	16 % UTC	20 % UTC	6 % UTC	260 nM	118 % UTC	116 % UTC	84 % UTC	71 % UTC	59 % UTC	56 % UTC	29 % UTC	30 % control	213 % control	APOE RNA (% UTC) (human APOE RNA [2]; 3,200 nM, 5 days (Table 14)): 21 % UTC; APOE RNA (% UTC) (human APOE RNA [2]; 8,000 nM, 5 days (Table 14)): 22 % UTC; APOE RNA (% UTC) (human APOE RNA [2]; 20,000 nM, 5 days (Table 14)): 10 % UTC; IC50 (human APOE RNA [2]; 5 days (Table 14)): 520 nM; APOE RNA (% control) Cortex (human APOE RNA [3]): 39 % control; APOE RNA (% control) Spinal Cord (human APOE RNA [3]): 38 % control
1778111: modified oligonucleotide complementary to human APOE RNA (eA*e[5mC]eTeTeG*kG*dT*dG[ms]dA[ms]dA*dT*d[5mC]*dT*dT*dT*dA[ms]eTeT*eA*eA; antisense) [compound 1778111]	106 % UTC	88 % UTC	91 % UTC	77 % UTC	62 % UTC	43 % UTC	32 % UTC	21 % UTC	14 % UTC	8 % UTC	440 nM	67 % UTC	68 % UTC	41 % UTC	41 % UTC	32 % UTC	62 % UTC	59 % UTC	41 % control	17 % control	APOE RNA (% UTC) (human APOE RNA [2]; 3,200 nM, 5 days (Table 14)): 43 % UTC; APOE RNA (% UTC) (human APOE RNA [2]; 8,000 nM, 5 days (Table 14)): 25 % UTC; APOE RNA (% UTC) (human APOE RNA [2]; 20,000 nM, 5 days (Table 14)): 17 % UTC; IC50 (human APOE RNA [2]; 5 days (Table 14)): 110 nM; APOE RNA (% control) Cortex (human APOE RNA [3]): 34 % control; APOE RNA (% control) Spinal Cord (human APOE RNA [3]): 53 % control
TezTeoGeoGksTdsGdzAdzAdzTds^mCdsTdsTdsTdsAdzTksTksAesAesAes^mCe (antisense eT[ms]eTeGkG*dT*dG[ms]dA[ms]dA[ms]dT*d[5mC]*dT*dT*dT*dA[ms]kT*kT*eA*eA*eA*e[5mC]) [Compound No. 1809814]	–	–	–	–	–	–	–	–	–	–	–	–	–	–	–	–	–	–	36 % control	33 % control	APOE RNA (% UTC) (human APOE RNA [2]; 5 nM, 5 days (Table 13)): 91 % UTC; APOE RNA (% UTC) (human APOE RNA [2]; 13 nM, 5 days (Table 13)): 66 % UTC; APOE RNA (% UTC) (human APOE RNA [2]; 33 nM, 5 days (Table 13)): 61 % UTC; APOE RNA (% UTC) (human APOE RNA [2]; 82 nM, 5 days (Table 13)): 63 % UTC; APOE RNA (% UTC) (human APOE RNA [2]; 205 nM, 5 days (Table 13)): 47 % UTC; APOE RNA (% UTC) (human APOE RNA [2]; 512 nM, 5 days (Table 13)): 53 % UTC; APOE RNA (% UTC) (human APOE RNA [2]; 1,280 nM, 5 days (Table 13)): 39 % UTC; APOE RNA (% UTC) (human APOE RNA [2]; 3,200 nM, 5 days (Table 13)): 39 % UTC; APOE RNA (% UTC) (human APOE RNA [2]; 8,000 nM, 5 days (Table 13)): 41 % UTC; APOE RNA (% UTC) (human APOE RNA [2]; 20,000 nM, 5 days (Table 13)): 33 % UTC; IC50 (human APOE RNA [2]; 5 days (Table 13)): 550 nM; reduction of human APOE RNA in the cortex (human APOE RNA [4]): 64%

Source: patent publication US20250353873A1, “COMPOUNDS AND METHODS FOR MODULATING APOE EXPRESSION” (Ionis Pharmaceuticals, Inc., priority 2024, published 2025)
